The assay concerns HSP47. To be noted: Table 5, stellate cells.

SMILES strings stand for the structures.

The source of these data is patent US11413243B2, “Fusogenic compounds for delivery of biologically active molecules” (Nitto Denko Corporation, priority 2017, dated 2022).

Procedure: The in vitro activity for gene expression knockdown using an siRNA was measured using rat stellate cells in DMEM medium according to the following protocol: One day before the transfection, plate the cells in a 96-well plate at 3×10^3 cells per well for Stellate cells with 100 μl of medium containing 10% FBS and culture in a 37° C. incubator containing a humidified atmosphere of 5% CO2 in air. Before transfection, change medium to 90 μl of medium without antibiotics. Prepare the appropriate dilutions of the solution collected from the tubing in PBS buffer so that the addition of 10 μl into each well is sufficient to reach the desired concentration. 48 hours after transfection, wash the cells once with ice-cold PBS. Lyse the cells with 50 μl of Cell-to-Ct Lysis Buffer for 5-30 minutes at ambient temperature. Add 5 μl of Stop Solution and incubate for 2 minutes at ambient temperature. Measure mRNA level by qPCR with TAQMAN immediately. Alternatively, the samples can be frozen at −80° C. and assayed at later times. For qRT-PCR assay: Thaw all reagents on ice. Mix the pooled reagents in 0.2 ml PCR tubes. Dispense the set-up mixture into 384 well plate, 10 μl/well×3. Seal the plate with film, spin down mixture into the bottom of wells. Perform qRT-PCR assay.
In this example, an HSP47 siRNA was used to knockdown HSP47 gene. For TaqMan gene expression assays, HSP47 gene specific TaqMan probe was used.

As to `CCCCC/C=C\C/C=C\CCCCCCCCOC(=O)[C@H]1C[C@H](NCC(=O)CCC(=O)NCCCCC(NC(=O)CCC(=O)N[C@H]2C[C@H](C(=O)OCCCCCCCC/C=C\C/C=C\CCCCC)N(C(=O)CCCCCCC/C=C\C/C=C\CCCCC)C2)C(=O)NCCCOCCOCCOCCOCCOCCCNC(=O)C(CCCCNC(=O)CCC(=O)N[C@@H]2C[C@@H](C(=O)OCCCCCCCC/C=C\C/C=C\CCCCC)N(C(=O)CCCCCCC/C=C\C/C=C\CCCCC)C2)NC(=O)CCC(=O)N[C@@H]2C[C@@H](C(=O)OCCCCCCCC/C=C\C/C=C\CCCCC)N(C(=O)CCCCCCC/C=C\C/C=C\CCCCC)C2)CN1C(=O)CCCCCCC/C=C\C/C=C\CCCCC` (stereo partly drawn) [Compound T10], the “% of HSP47 expression in Stellate Cell, Conc siRNA 18 nM” value is reported as 11.1%; the “% of HSP47 expression in Stellate Cell, Conc siRNA 75 nM” value is reported as 4.2%; the “% of HSP47 expression in Stellate Cell, Conc siRNA 300 nM” value was found to be 1.9%.
The corresponding values for `CCCCC/C=C\C/C=C\CCCCCCCC(=O)OCC(OC(=O)CCCCCCC/C=C\C/C=C\CCCCC)C1CCN(C(=O)CCC(=O)NCCCCC(NC(=O)CCC(=O)N2CCC(C(COC(=O)CCCCCCC/C=C\C/C=C\CCCCC)OC(=O)CCCCCCC/C=C\C/C=C\CCCCC)CC2)C(=O)NCCCOCCOCCOCCOCCOCCCNC(=O)C(CCCCNC(=O)CCC(=O)N2CCC(C(COC(=O)CCCCCCC/C=C\C/C=C\CCCCC)OC(=O)CCCCCCC/C=C\C/C=C\CCCCC)CC2)NC(=O)CCC(=O)N2CCC(C(COC(=O)CCCCCCC/C=C\C/C=C\CCCCC)OC(=O)CCCCCCC/C=C\C/C=C\CCCCC)CC2)CC1` (stereo not drawn) [Compound T11] are 11.1%, 4.5% and 1.8%.
Take `CCCCC/C=C\C/C=C\CCCCCCCCOC(=O)[C@H](COC(=O)CCC(=O)NCCCCC(NC(=O)CCC(=O)OC[C@H](NC(=O)CCCCCCC/C=C\C/C=C\CCCCC)C(=O)OCCCCCCCC/C=C\C/C=C\CCCCC)C(=O)NCCCOCCOCCOCCOCCOCCCNC(=O)C(CCCNC(=O)CCC(=O)OC[C@@H](NC(=O)CCCCCCC/C=C\C/C=C\CCCCC)C(=O)OCCCCCCCC/C=C\C/C=C\CCCCC)NC(=O)CCC(=O)OC[C@@H](NC(=O)CCCCCCC/C=C\C/C=C\CCCCC)C(=O)OCCCCCCCC/C=C\C/C=C\CCCCC)NC(=O)CCCCCCC/C=C\C/C=C\CCCCC` (stereo partly drawn) [Compound T12]: the “% of HSP47 expression in Stellate Cell, Conc siRNA 18 nM” value came out at 40.2%; the “% of HSP47 expression in Stellate Cell, Conc siRNA 75 nM” value was 8.4%; the “% of HSP47 expression in Stellate Cell, Conc siRNA 300 nM” value worked out at 2.7%.
Take `CCCCC/C=C\C/C=C\CCCCCCCC(=O)OCCN(CCOC(=O)CCCCCCC/C=C\C/C=C\CCCCC)C(=O)CCC(=O)NCCCC[C@H](NC(C)=O)C(=O)NCCCOCCOCCOCCOCCOCCCNC(=O)[C@H](CCCCNC(=O)CCC(=O)N(CCOC(=O)CCCCCCC/C=C\C/C=C\CCCCC)CCOC(=O)CCCCCCC/C=C\C/C=C\CCCCC)NC(C)=O` [Compound T13]: the “% of HSP47 expression in Stellate Cell, Conc siRNA 18 nM” value was found to be 21.8%; the “% of HSP47 expression in Stellate Cell, Conc siRNA 75 nM” value was 6.4%; the “% of HSP47 expression in Stellate Cell, Conc siRNA 300 nM” value was determined as 3.1%.
Turning to `CCCCC/C=C\C/C=C\CCCCCCCC(=O)OCCN(CCOC(=O)CCCCCCC/C=C\C/C=C\CCCCC)C(=O)CCC(=O)NC(CCCCNC(C)=O)C(=O)NCCCOCCOCCOCCOCCOCCCNC(=O)[C@H](CCCCNC(C)=O)NC(=O)CCC(=O)N(CCOC(=O)CCCCCCC/C=C\C/C=C\CCCCC)CCOC(=O)CCCCCCC/C=C\C/C=C\CCCCC` (stereo partly drawn) [Compound T14], the “% of HSP47 expression in Stellate Cell, Conc siRNA 18 nM” value is on record as 103.3%; the “% of HSP47 expression in Stellate Cell, Conc siRNA 75 nM” value was found to be 59.1%; the “% of HSP47 expression in Stellate Cell, Conc siRNA 300 nM” value worked out at 5.2%.
